Experimental data as given in US20190111154A1, “TREATMENT OF NEUROPATHY WITH DNA CONSTRUCT EXPRESSING HGF ISOFORMS WITH REDUCED INTERFERENCE FROM GABAPENTINOIDS” (ViroMed Co., Ltd., priority 2017, published 2019).

Experiments:
[1] = Von Frey filament test in chronic constriction injury (CCI) mice, Example 1; format: in vivo; conditions: for paw withdrawal frequency: day 14-16
Protocol: FIG. 2 illustrates the experimental procedure for testing effects of gabapentin on VM202-mediated pain reduction using chronic constriction injury (CCI) mice. Surgical procedure on sciatic nerve (CCI or sham) was performed and a plasmid (pCK or VM202) was administered to 5-week-old male mice on day 0, gabapentin or PBS was injected daily to the mice from day 1 to day 15, and their pain levels were measured by von Frey filament test starting on day 14 through 16.
In order to explore the mechanisms behind the gabapentinoid interference with VM202 efficacy, we tested effects of gabapentin on VM202-mediated pain reduction in chronic constriction injury (CCI) mice as presented in FIG. 2. CCI is an animal model widely used for studying neuropathic pain. Specifically, chronic constriction injury (CCI) was introduced by applying loosely constrictive ligatures to the sciatic nerve of 5 week-old male mice. The CCI mice were divided into three groups—in the first group, 200 μg of pCK vector was administered into the cranial thigh muscles as a negative control for VM202 administration (pCK is the vector used in VM202, but lacks the HGF vector payload), in the second group, 200 μg of VM202 was administered into the cranial thigh muscles, and in the third group, no DNA construct was administered. Animals in each of the first and the second group were further divided into two subgroups, with the first subgroup injected daily with 100 mg/kg of gabapentin and the second subgroup injected daily with PBS as a negative control for gabapentin administration, via intraperitoneal cavity for two weeks. The sham group without CCI was also maintained and daily injected with PBS. From day 14 to day 16, Von Frey filament test was performed to assess the level of neuropathic pain (mechanical allodynia).

[2] = Nerve pinch test in nerve crush mouse model; format: in vivo, mice; conditions: day 7
Protocol: FIG. 5 illustrates the experimental procedure for testing gabapentin effects on VM202-mediated nerve regeneration in a nerve crush mouse model. Nerve crush was induced and VM202 administered to 9-week old male C57BL/6 mice on day 1, gabapentin was injected daily from day 2 to day 6, and nerve pinch test was conducted on day 7.
Effects of gabapentinoids on VM202-mediated nerve regeneration were tested in a nerve crush animal model. The protocol is schematized in FIG. 5. Specifically, nerve crush was introduced to 9-week-old C57BL/6 mice by giving brief pressure to their sciatic nerve. On the same day (day 1), the mice were injected with 200 μg of VM202 to the cranial thigh muscles right after the nerve crush. From the next day (day 2), 100 mg/kg gabapentin was administered daily.
On day 7, a nerve pinch test was performed to quantify functional recovery of the injured nerve. For the nerve pinch test, light anesthesia was induced and sciatic nerve was exposed. The injured nerve was pinched from its distal to proximal direction until a reflex response was observed. The distance was then measured between the injury site and the foremost site that produced the response. The distance measured by this method represents the length of regenerated nerves, which is provided on the y-axis in FIG. 6.

c-Jun = test: Western blot of c-Jun in dorsal root ganglion (DRG) cells of nerve crush mice; format: in vivo, mouse
Excerpt: Expressions of c-Jun (top) and GAPDH (bottom) were detected by antibodies specific to each protein. FIG. 7B provides relative levels of c-Jun expression in each sample, calculated by measuring band intensity of c-Jun and comparing the intensity with the band intensity of GAPDH.
c-Jun is well established to be a key factor involved in nerve regeneration, and has been used as a marker for that process. Expression of c-Jun protein prepared from dorsal root ganglion (DRG) cells obtained from a sham mouse (“Sham”) or from a nerve crush mouse (“Crush”) was measured by Western blot assay, using an antibody against c-Jun. […] VM202 treatment further increased c-Jun expression level by 1.3-fold (compare lanes 2 and 3 of FIG. 7A), but such induction was not observed when mice were exposed to gabapentin (compare lanes 5 and 6 of FIG. 7A). The western blot assay results were quantified based on the band intensities and presented in FIG. 7B for their analysis and comparison.

[3] = Von Frey filament test in CCI mice, gabapentin at different time points, Example 4; format: in vivo
Protocol: The effects of gabepentinoid administration at different time points relative to VM202 administration were tested in chronic constriction injury (CCI) mice.
After CCI surgery, the development of mechanical allodynia was assessed using a Von Frey's filament test once a week, and the level of pain reduction fold was calculated based on the mechanical frequency evaluation. Briefly, animals were placed individually in a cylinder on top of a metal mesh floor for adaptation. To examine the frequency of mechanical sensitivity, mice were assessed by stimulating the hind paw using constant thickness of the filament (0.16 g).
To further understand the delay required to prevent the interference, in a further experiment, CCI mice injected with VM202 were treated with gabapentin after delays for various periods ranging from 0 to 14 days. CCI mice were injected with VM202 or pCK on day 0. The CCI mice were treated with no gabapentin (CONT1, CONT2) or additionally treated with gabapentin starting on day 0 (on the day of VM202 injection, GP1) or day 3 (GP2), day 7 (GP3) or day 10 (GP4) after VM202 injection.
Two weeks after CCI surgery and VM202 or pCK injection, the development of mechanical allodynia was assessed using a Von Frey's filament test, and the level of pain reduction fold was calculated based on the mechanical frequency evaluation for each animal.

[4] = cited from earlier work
[5] = CCI mice given pCK and daily 100 mg/kg gabapentin i.p.

Question: Which results are given for `NCC1(CC(=O)O)CCCCC1` [gabapentin]?
Answer: duration of pain relieving effects [1, 5]: about 6 hours; pain level (paw withdrawal frequency) [1, 5]: decreases in pain levels immediately after the gabapentin administration

Question: Which “pain level (paw withdrawal frequency)” value ([1]; CCI mice, 200 μg VM202, no gabapentin, throughout the experimental period) does the source give for “VM202: plasmid DNA, HGF-X7 cloned into the pCK vector (SEQ ID NO: 11), expresses flHGF and dHGF; KCCM-10361” here?
Answer: Its value is “significantly lower pain levels”.

Question: And the paw withdrawal frequency ([1]; CCI mice, 200 μg VM202 i.m. plus daily 100 mg/kg gabapentin i.p.)?
Answer: Its paw withdrawal frequency is 46.1%.

Question: What about the paw withdrawal frequency ([1]; CCI mice, 200 μg VM202 i.m., no gabapentin) of the same compound?
Answer: The paw withdrawal frequency was 30.56%.

Question: What about the “time over which pain level increased close to the pCK-PBS level after gabapentin injection” value ([1]; VM202-treated CCI mice, daily 100 mg/kg gabapentin) of the same compound?
Answer: The value was “about 10 hours”.

Question: And the “compromise of the pain reduction effect of VM202 by gabapentin” value ([1]; daily 100 mg/kg gabapentin i.p.)?
Answer: Its value is “more than 50%”.

Question: And the “length of regenerated nerve” value ([2]; 200 μg VM202, daily 100 mg/kg gabapentin)?
Answer: Its value is 1.95±0.3 mm.

Question: What about the “length of regenerated nerve” value ([2]; 200 μg VM202, daily PBS) of the same compound?
Answer: Its value is “about 4±0.2 mm”.

Question: What about the “length of regenerated nerve, fold versus pCK control” value ([2]; daily PBS) of the same compound?
Answer: The value was “approximately 2.7 fold”.

Question: What about the “increase of nerve regeneration, fold versus pCK control group” value ([2]; in the presence of daily gabapentin) of the same compound?
Answer: Its value is 2.3 fold.

Question: And the “increase of c-Jun expression level versus nerve crush mice given pCK” value (c-Jun; daily PBS (lanes 2 and 3))?
Answer: The value was 1.3 fold.

Question: And the “induction of c-Jun expression versus nerve crush mice given pCK” value (c-Jun; mice exposed to gabapentin (lanes 5 and 6))?
Answer: The value was “not observed”.

Question: What about the “pain level versus CCI-pCK” value ([3]; CCI-VM202-Gaba1: gabapentin from day 0 to day 14) of the same compound?
Answer: Its value is “no effects”.

Question: What about the “pain level from day 14 to 28, after gabapentin stopped” value ([3]; CCI-VM202-Gaba1: gabapentin from day 0 to day 14, none afterwards) of the same compound?
Answer: The value was “continued to have high level of pains”.

Question: What about the pain relieving effects ([3]; CCI-VM202-Gaba2: gabapentin from day 15 to day 28) of the same compound?
Answer: The pain relieving effects was “significant and maintained”.

Question: What about the “pain level versus CCI-pCK” value ([3]; CCI-VM202: 200 μg/head VM202 day 0, no gabapentin) of the same compound?
Answer: Its value is “significantly reduced the pain level”.

Question: What about the “pain reducing effect two weeks after CCI surgery” value (“pain reducing effect two weeks” for short) ([3]; CONT2: no gabapentin) of the same compound?
Answer: The value was “significant pain relief”.

Question: And the “pain reducing effect two weeks” value ([3]; GP1: 100 mg/kg gabapentin started day 0)?
Answer: The value was “did not have significant pain reducing effects”.

Question: And the “pain reducing effect two weeks” value ([3]; GP2: 100 mg/kg gabapentin started day 3)?
Answer: Its value is “did not have significant pain reducing effects”.

Question: And the “pain reducing effect two weeks” value ([3]; GP3: 100 mg/kg gabapentin started day 7)?
Answer: Its value is “did not have significant pain reducing effects”.

Question: What about the “pain reducing effect two weeks” value ([3]; GP4: 100 mg/kg gabapentin started day 10) of the same compound?
Answer: Its value is “significant pain relief”.

Question: And the “pain in patients with diabetic peripheral neuropathy” value ([4]; injections into the calf muscle, two days of treatment spaced two weeks apart)?
Answer: Its value is “significantly reduce pain”.

Question: And the “reduction in pain from baseline, patients not on Lyrica and/or Neurontin versus total patient group” value ([4]; low dose of VM202 (total 16 mg), 3, 6, 9 months)?
Answer: The value was “larger reduction in pain”.

Question: What about the “pain relief in patients not taking pregabalin or gabapentin versus patients taking a gabapentinoid” value ([4]; post hoc analysis of phase II data) of the same compound?
Answer: Its value is “more effective in relieving pain in patients not taking pregabalin or gabapentin”.

Question: What about the “duration of symptomatic relief with improvement in quality of life” value ([4]; two days of treatment, spaced two weeks apart) of the same compound?
Answer: Its value is 3 months.
